Results on three compounds are retold here after US9913789B2, “Formulations containing sphinganine” (Evonik Degussa GmbH, priority 2013, dated 2018).

Experiment [1] deals with human follicular dermal papilla cells (HFDPCs). The experiment can be described thus: MTT assay, stimulation of proliferation of human follicular dermal papilla cells. Particulars: sphinganine 0.3 μg/ml; creatine 10 μg/ml; caffeine 10 μg/ml; 0.1% (v/v) ethanol; incubation 24 hours. In kind it is cell-based. (Formazan colour is commonly taken as a measure of viable cells.)
Protocol: The cells were sown in a cell density of about 6300 cells/cm^2 in a T75 bottle with follicle dermal papilla cell growth medium (for short: growth medium) and then incubated at 37° C., 5% CO2. After 1 day, media exchange was carried out. After a further 3 days, the medium was removed, the cells were washed with PBS (phosphate buffered saline) (without Mg^2+ and Ca^2+), detached by accutase treatment; the cell count is determined and then the cells are sown in a concentration of about 5500 cells/cm^2 in new T75 bottles in growth medium and further cultivated under identical conditions as described above. After 1 and 3 days, media exchange was carried out. After 1 further day, the medium was removed, the cells were washed in PBS (without Mg^2+ and Ca^2+), detached by accutase treatment and then sown in a concentration of about 10 000 cells/cm^2 into the cavities of 6-well cell culture plates with 2.5 ml of growth medium in each case. After 1 day, media exchange was carried out, and the test substances—diluted in fresh medium—were applied. […] All cultivations were carried out in the presence of 0.1% (v/v) ethanol and a corresponding vehicle control was performed at the same time. After incubation for 24 hours, an MTT assay was carried out. The activity in the MTT test indicates the activity of the mitochondrial dehydrogenase and is a marker for the cell vitality and the proliferation capacity. Firstly, a 10 mg/ml stock solution of the MTT reagent (Thiazolyl Blue Tetrazolium Bromide, Sigma Aldrich M5655) in PBS was prepared. The stock solution was then diluted with growth medium to an end concentration of 1 mg/ml MTT reagent. The cells were washed with PBS (without Mg^2+ and Ca^2+) and incubated with 1 ml of growth medium with MTT reagent for 3 h at 37° C. […] The absorption of the extracts was determined by spectrophotometry at a wavelength of 550 nm. The optical density of the extracts from the cells treated only with the vehicle is regarded as the reference (100%), all of the other measured values are quantified relative to the reference sample.
The next experiment has as its system ex vivo hair follicles. The settings on record: ex vivo hair follicles kept in culture; EP0790053; cited from earlier work.
The test system of experiment [2] is in vitro cultivated keratinocytes. Particulars: EP0790053; cited from earlier work.

Take `CN(CC(=O)O)C(=N)N` [creatine]: in experiment [1], the “cell proliferation (MTT, optical density at 550 nm relative to vehicle control = 100%)” value worked out at 104.0%. On to `CCCCCCCCCCCCCCC[C@@H](O)[C@@H](N)CO` [sphinganine], for which the “lifespan of the hair follicles” value with ex vivo hair follicles was “increases the lifespan of the hair follicles”. For the same compound, in experiment [1], the “cell proliferation (MTT, optical density at 550 nm relative to vehicle control = 100%)” value is listed as 103.9%. Besides, the “effect on growth of keratinocytes” value in experiment [2] is given as “growth-promoting effect”.

With `Cn1c(=O)c2c(ncn2C)n(C)c1=O` [caffeine], the “cell proliferation (MTT, optical density at 550 nm relative to vehicle control = 100%)” value in experiment [1] is 102.5%.
